Measurements published in PMC9989931, “Membrane‐acting biomimetic peptoids against visceral leishmaniasis” (FEBS Open Bio, 2023).
pIC50: −log10 of the molar value. “And” between values parts separate entries of the source, which are not always exact repeats. Equal entries are not always repeated. “Also recorded” adds a separate entry of the source. Square brackets hold non-standard residues; d marks the D form. Peptide text beside a SMILES is read from it. Nspe(4-Br) = C[C@H](NCC(=O)O)c1ccc(Br)cc1; N(tridecyl)Gly = CCCCCCCCCCCCCNCC(=O)O; Nspe = C[C@H](NCC(=O)O)c1ccccc1; Nlys = NCCCCNCC(=O)O

Columns and labels:
[1] = test system: RAW 264.7 cells; test: Cytotoxicity against RAW 264.7 cells (MTT); assay type: cell-based, murine; conditions: for Host cell viability: 20 µM
Experimental: The cytotoxicity of different peptoids against RAW 264.7 cells was assessed by the MTT method following a published protocol. Briefly, murine macrophages were seeded in a 96‐well plate using DMEM supplemented with 10% FBS maintained at 37 °C and 5% CO2 for 24 h. Next, different concentrations of peptoids (5–80 μM) were added and incubated for 24 h followed by the addition of MTT for 2 h and solubilization of formazene crystals with DMSO addition. Percentage cell viability was calculated relative to the peptoid untreated sample.
Fig. 6 Percentage of living RAW 264.7 cells after incubation with different concentrations of peptoids. RAW 264.7 macrophage cells were incubated with peptoid for 24 h. […] The working concentration of 10 μM of peptoids caused only 50% or lower cytotoxicity in RAW 264.7 cells. Cell viability was determined by MTT assay, and data based on three experiments are represented by mean ± SD.

[2] = test system: Leishmania donovani intracellular amastigotes; test: Intracellular amastigote clearance in infected RAW 264.7 macrophages (Giemsa staining, microscopy); assay type: cell-based; design: key to Effect on intracellular amastigotes: *: Good; **: Better; ***: Best; conditions: infected RAW 264.7 cells, 10 μM peptoid; for Effect on intracellular amastigotes: Giemsa staining, grade; for Effect on intracellular amastigotes by Giemsa staining (number, size, count): vs untreated control, 24 h or 4 h
Experimental: To evaluate the inhibitory effect of different peptoids on intracellular amastigotes, RAW 264.7 cells were infected with logarithmic phase promastigotes. Briefly, RAW 264.7 cells (10^5 cells/well) were seeded in 24‐well plates with round sterile coverslips and allowed to adhere to the coverslip for 24 h at 37 °C at 5% CO2 DMEM media supplemented with 10% FBS. Adherent macrophages were infected with L. donovani promastigotes at 1 : 10 (macrophage: promastigotes) for 6 h. Co‐infected cells were washed with PBS three times and incubated for a further 24 h for infection establishment. After 24 h, media were removed and again washed with FBS‐free DMEM followed by peptoid treatment. Ten μM of different peptoids were added to the co‐infected cells and incubated for 4 h at 37 °C at 5% CO2. After 4 h, peptoid‐treated co‐infected cells were washed with PBS, fixed with 100% methanol, and stained with diluted Giemsa stain (1 : 10) (HiMedia, Mumbai, India). The parasite clearance status of peptoids was determined by counting the number of the parasites using the Leica LAS core microscope system by counting 100 cells per coverslip.
Fig. 2 Giemsa staining of intracellular amastigotes in macrophage 264.7 cells after treatment with different peptoids at 10 μM concentrations. Untreated amastigotes (A), sample treated with TM 1 (B), TM 2 (C), TM 3 (D), TM 4 (E), TM 5 (F), TM 7 (G), TM 9 (H), and TM 10 (I). Red arrow points to the amastigotes form of Leishmania donovani parasite. Scale bar represents […].

[3] = test system: Leishmania donovani promastigotes (Bob strain); assay type: cell-based; conditions: 4 h; for Reduction of promastigote viability: at 3 μM, MTT, vs untreated cells
Experimental: Promastigotes of bob L. donovani were harvested in the log phase, and parasite inhibition was determined through 3‐(4,5‐dimethylthiazol‐2‐yl)‐2,5‐diphenyl‐tetrazolium bromide (MTT) methods using twofold dilution techniques. Briefly, promastigote density of 2 × 10^6 cells was taken, and different peptoid dilutions were added (0.187–3 μM) in a total volume of 100 μL. Percentage parasite viability was evaluated at 4 h at 25 °C using MTT (Sigma‐Aldrich). Parasite viability rate (%) = [OD of test sample/OD of untreated sample] × 100.
All experiments were carried out in triplicate and repeated at least three times independently (biological replicates), and the figures shown are representative of these experiments. IC50 was calculated using GRAPHPAD PRISM 6.0 software. The data were analyzed using Student's t‐test for comparison of two groups, and data values were expressed as mean ± standard deviation (SD). Significant differences were determined and designated with asterisks as follows: *P < 0.05; **P < 0.01; ***P < 0.001; and ****P < 0.0001.
Fig. 1 Antileishmanial activity of peptoids against Leishmania donovani promastigotes. Early‐logarithmic‐phase promastigotes of L. donovani bob strain were treated with different peptoids at different concentrations (0–3 μM) for 4 h. Negative control was considered 100% of cell viability (untreated) and positive control (Triton X treated). Cellular viability was assessed by MTT assay, and the IC50 values were calculated using GRAPHPAD PRISM 6.0. Error bars represent SD N = 3 and n = 3.

Row | pIC50 [3] | Compound | Host cell viability [1] | Effect on intracellular amastigotes [2] | Reduction of promastigote viability [3] [%] | Effect on intracellular amastigotes by Giemsa staining (number, size, count) [2] | Reduction in host cell viability ([1]; RAW 264.7 cells, 10 μM, 24 h, MTT)
1 | 5.34 | C[C@@H](c1ccc(Br)cc1)N(CC(N)=O)C(=O)CN(C(=O)CN(CCCCN)C(=O)CN(C(=O)CN(C(=O)CNCCCCN)[C@@H](C)c1ccccc1)[C@@H](C)c1ccccc1)[C@@H](C)c1ccccc1 [TM3] (H-[Nlys][Nspe][Nspe][Nlys][Nspe][Nspe(4-Br)]-NH2) | no toxicity | * | – | – | –
2 | 5.52 | C[C@@H](c1ccccc1)N(CC(N)=O)C(=O)CN(C(=O)CN(CCCCN)C(=O)CN(C(=O)CN(C(=O)CNCCCCN)[C@@H](C)c1ccccc1)[C@@H](C)c1ccccc1)[C@@H](C)c1ccccc1 [TM7] (H-[Nlys][Nspe][Nspe][Nlys][Nspe][Nspe]-NH2) | no toxicity | ** | ≥ 50 | reduction in number and size of amastigotes; also recorded: significantly reduced their count | –
3 | 5.81 | CCCCCCCCCCCCCNCC(=O)N(CCCCN)CC(=O)N(CC(=O)N(CC(=O)N(CCCCN)CC(=O)N(CC(=O)N(CC(N)=O)[C@@H](C)c1ccc(Br)cc1)[C@@H](C)c1ccccc1)[C@@H](C)c1ccc(Br)cc1)[C@@H](C)c1ccccc1 [TM10] (H-[N(tridecyl)Gly][Nlys][Nspe][Nspe(4-Br)][Nlys][Nspe][Nspe(4-Br)]-NH2) | – | *** | – | reduction in number and size of amastigotes; also recorded: significantly reduced their count | –

Continued, compound first:

Row | Compound | pIC50 [3] | Host cell viability [1] | Effect on intracellular amastigotes [2] | Reduction of promastigote viability [3] [%] | Effect on intracellular amastigotes by Giemsa staining (number, size, count) [2] | Reduction in host cell viability ([1]; RAW 264.7 cells, 10 μM, 24 h, MTT)
4 | C[C@@H](c1ccc(Br)cc1)N(CC(N)=O)C(=O)CN(C(=O)CN(CCCCN)C(=O)CN(C(=O)CN(C(=O)CNCCCCN)[C@@H](C)c1ccccc1)[C@@H](C)c1ccc(Br)cc1)[C@@H](C)c1ccccc1 [TM2] (H-[Nlys][Nspe][Nspe(4-Br)][Nlys][Nspe][Nspe(4-Br)]-NH2) | 5.85 | more than 50% | * | ≥ 50 | – | –
5 | C[C@@H](c1ccccc1)N(CC(N)=O)C(=O)CN(C(=O)CN(CCCCN)C(=O)CN(C(=O)CN(C(=O)CN(CCCCN)C(=O)CN(C(=O)CN(C(=O)CN(CCCCN)C(=O)CN(C(=O)CN(C(=O)CNCCCCN)[C@@H](C)c1ccccc1)[C@@H](C)c1ccccc1)[C@@H](C)c1ccccc1)[C@@H](C)c1ccccc1)[C@@H](C)c1ccccc1)[C@@H](C)c1ccccc1)[C@@H](C)c1ccccc1 [TM1] (H-[Nlys][Nspe][Nspe][Nlys][Nspe][Nspe][Nlys][Nspe][Nspe][Nlys][Nspe][Nspe]-NH2) | – | – | *** | ≥ 50 | reduction in number and size of amastigotes; also recorded: reduces the amastigote count | ~ 40% and 40%
